Test results as given in patent publication US8940739B2, “Compound of a reverse-turn mimetic and a production method and use therefor” (JW Pharmaceutical Corporation, priority 2010, dated 2015).

How the values were obtained:
[1] = tested on: MV-4-11 (human, Acute Myeloid Leukemia cell line) cells; test: Cell growth inhibition assay, GI50 of MV-4-11; assay type: cell-based; conditions: Homo sapiens, MV4-11, 72 h, MV-4-11 cells
In short: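 GI50 derived from 490 nm absorbance using CellTiter 96 Aqueous One reagent, with compound-free medium providing the background. Human AML MV-4-11 cells, seeded at 5×10^4 per well in IMDM/10% FBS, incubated 72 h at 37 °C with duplicate serial dilutions of test compound.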

[2] = biological target: cDNA-expressed human hepatic CYP3A4 (Homo sapiens (Human), UniProt P08684); test: Measurement of CYP (IC50 of P450 CYP3A4), BFC substrate; assay type: in vitro ADME; conditions: 20 minutes
Chain of cDNA-expressed human hepatic CYP3A4 (P08684 whole entry): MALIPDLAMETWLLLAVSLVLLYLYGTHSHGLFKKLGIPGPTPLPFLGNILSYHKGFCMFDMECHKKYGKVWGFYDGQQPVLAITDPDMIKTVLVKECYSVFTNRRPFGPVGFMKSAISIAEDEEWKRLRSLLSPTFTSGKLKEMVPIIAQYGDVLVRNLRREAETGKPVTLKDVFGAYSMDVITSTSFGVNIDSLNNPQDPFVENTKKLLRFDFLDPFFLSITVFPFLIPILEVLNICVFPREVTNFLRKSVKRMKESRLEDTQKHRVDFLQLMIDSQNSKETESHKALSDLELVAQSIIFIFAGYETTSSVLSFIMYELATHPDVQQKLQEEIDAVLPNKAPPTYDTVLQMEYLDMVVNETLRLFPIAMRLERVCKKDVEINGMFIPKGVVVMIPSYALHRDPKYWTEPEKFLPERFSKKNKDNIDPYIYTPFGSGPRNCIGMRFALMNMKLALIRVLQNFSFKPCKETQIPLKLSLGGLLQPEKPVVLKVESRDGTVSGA
In short: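 cDNA-expressed human CYP3A4 supersomes in 0.1M potassium phosphate pH 7.4 with 8.3 mM MgCl2, 1.67 mM EDTA and 0.25 mM NADPH; compounds in acetonitrile (<1% final). Reaction started with 30 µM BFC, 20 min at 37. 7-Hydroxy-4-trifluoromethyl-coumarin read by fluorescence (ex 409/em 530 nm).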

[3] = MLM, hepatic metabolic stability; assay type: in vitro ADME; conditions: mouse hepatic microsome, amount at 30 minutes compared with 0 minutes
Experimental: For the sake of retaining efficacy of novel drugs and preventing side-effects, hepatic metabolic stability is regarded as very important. Hepatic metabolic stability is typically determined using microsome or S9. In the present test, a microsome having CYP450 as a main component, which plays a great role in metabolism, was used to evaluate the metabolic stability.
This assay was performed in a 200 l volume in a 13 ml glass tube using mouse hepatic microsome whose activity was measured.
The compounds of Examples 1 to 5 were dissolved in DMSO (dimethyl sulfoxide) to prepare a 25 mM stock solution, which was then diluted with 50% acetonitrile and used in the test. A potassium phosphate buffer (pH 7.4, final concentration 0.1M), MgCl2 (final concentration 0.1M), a diluted inventive compound stock solution (final concentration 1 mM), and a mouse microsome (final concentration 5 mg/ml) were added to the glass tube. The reaction was initiated by the addition of a cofactor NADPH (final concentration 12.5 mM) after pre-incubation at 37 for 3 minutes. The reaction was carried out at 37 for 10 minutes and 30 minutes, and then terminated with 1000 μl of acetonitrile, and the remaining inventive compound was extracted. The centrifugation was conducted at 3000 rpm for 10 minutes, after which the supernatant was dried and dissolved again in 150 μl of 50% acetonitrile and quantitatively analyzed by HPLC. 0 minutes and 30 minutes after reaction, the amounts of the compounds of the present invention were compared thus evaluating the extent of metabolic stability.

SMILES	GI50 [1]	IC50 [2]	MLM (%) [3]
C=CCN1CC(=O)N2[C@@H](Cc3ccc(O)cc3)C(=O)N(Cc3cccc4c(-c5ccc(NC(=O)Nc6ccc(OC)nc6)cc5)cn(C)c34)C[C@@H]2N1C(=O)NCc1ccccc1 [Compound B, (6S,9aS)-2-allyl-N-benzyl-6-(4-hydroxybenzyl)-8-((3-(4-(3-(6-methoxypyridin-3-yl)ureido)phenyl)-1-methyl-1H-indol-7-yl)methyl)-4,7-dioxooctahydro-1H-pyrazino[2,1-c][1,2,4]-triazine-1-carboxamide]	0.0065 µM	> 25 µM	65%
C=CCN1CC(=O)N2[C@@H](Cc3ccc(O)cc3)C(=O)N(Cc3cccc4c(-c5ccc(NC(=O)Nc6ccccc6)nc5)cn(C)c34)C[C@@H]2N1C(=O)NCc1ccccc1 [Compound C, (6S,9aS)-2-allyl-N-benzyl-6-(4-hydroxybenzyl)-8-((1-methyl-3-(6-(3-phenylureido)pyridine-3-yl)-1H-indol-7-yl)methyl)-4,7-dioxooctahydro-1H-pyrazino[2,1-c][1,2,4]-triazine-1-carboxamide]	0.0095 µM	> 25 µM	64%
C=CCN1CC(=O)N2[C@@H](Cc3ccc(O)cc3)C(=O)N(Cc3cccc4c(-c5ccc(C(=O)Nc6ccc(N7CCN(C(C)=O)CC7)cc6)cc5)cn(C)c34)C[C@@H]2N1C(=O)NCc1ccccc1 [Compound D-10]	0.0013 µM	> 25 µM	88%
C=CCN1CC(=O)N2[C@@H](Cc3ccc(O)cc3)C(=O)N(Cc3cccc4c(-c5ccc(C(=O)NC6CCC(NC(=O)OC(C)(C)C)CC6)cc5)cn(C)c34)C[C@@H]2N1C(=O)NCc1ccccc1 (stereo partly drawn) [Compound D-31]	0.0015 µM	> 25 µM	107%
C=CCN1CC(=O)N2[C@@H](Cc3ccc(O)cc3)C(=O)N(Cc3cccc4c(C(=O)N5CCN(CCCN(C)C)CC5)cn(C)c34)C[C@@H]2N1C(=O)NCc1ccccc1 [Compound E-13]		> 25 µM	89.1%
C=CCN1CC(=O)N2[C@@H](Cc3ccc(O)cc3)C(=O)N(Cc3cccc4c(C(=O)N5CCC(N6CCN(C)CC6)CC5)cn(C)c34)C[C@@H]2N1C(=O)NCc1ccccc1 [Compound E-19]		> 25 µM	73.4%
C=CCN1CC(=O)N2[C@@H](Cc3ccc(O)cc3)C(=O)N(Cc3cccc4c(C(=O)N5CCN(CC6CCNCC6)CC5)cn(C)c34)C[C@@H]2N1C(=O)NCc1ccccc1 [Compound E-23]		8.17 µM	73.8%
C=CCN1CC(=O)N2[C@@H](Cc3ccc(O)cc3)C(=O)N(Cc3cccc4c(C(=O)N5CCC(NC(=O)c6ccc(N(C)C)cc6)CC5)cn(C)c34)C[C@@H]2N1C(=O)NCc1ccccc1 [Compound E-59]		> 25 µM	58.5%
C=CCN1CC(=O)N2[C@@H](Cc3ccc(O)cc3)C(=O)N(Cc3cccc4c(C(=O)N5CC(N6CCN(C)CC6)C5)cn(C)c34)C[C@@H]2N1C(=O)NCc1ccccc1 [Compound E-71]		> 25 µM	67.2%
C=CCN1CC(=O)N2[C@@H](Cc3ccc(O)cc3)C(=O)N(Cc3cccc4c(C(=O)NCCCC(=O)O)cn(C)c34)C[C@@H]2N1C(=O)NCc1ccccc1 [Compound F-24]		> 25 µM	84.2%
C=CCN1CC(=O)N2C(Cc3ccc(O)cc3)C(=O)N(Cc3cccc4c(C(=O)Nc5ccc(N6CCN(c7ccc(C(F)(F)F)cc7)CC6)nc5)cn(C)c34)CC2N1C(=O)NCc1ccccc1 (stereo not drawn) [Compound G-58]		23.7 µM	85.1%
C=CCN1CC(=O)N2[C@@H](Cc3ccc(O)cc3)C(=O)N(Cc3cccc4c(-c5ccc(NC(=S)NC(=O)c6ccccc6)nc5)cn(C)c34)C[C@@H]2N1C(=O)NCc1ccccc1 [Compound H-5]		> 25 µM	74%
C=CCN1CC(=O)N2[C@@H](Cc3ccc(O)cc3)C(=O)N(Cc3cccc4c(-c5cnc(N(C)C)nc5)cn(C)c34)C[C@@H]2N1C(=O)NCc1ccccc1 [Compound H-7]	0.0015 µM	6.41 µM	
